Results published in BindingDB's records for doi:10.1016/j.bmcl.2011.11.036 (Pfizer, 2011).

Experiment: Inhibition of mouse Sky kinase assessed as inhibition of src substrate phosphorylation by ELISA

IC50 [nM]	Structure (SMILES)
189	C[C@@H]1CCC(N2CC[C@]3(CN(C(=O)c4cc5ccc(F)cc5[nH]4)c4ccccc43)C2)CN1 (stereo partly drawn)
246	C[C@@H]1CCC(N2CC[C@]3(CN(C(=O)c4cc5ccccc5[nH]4)c4ccccc43)C2)CN1 (stereo partly drawn)
1130	N#Cc1ccc2cc(C(=O)N3C[C@]4(CCN(C5CCNC5)C4)c4ccccc43)[nH]c2c1 (stereo partly drawn)
598	O=C(c1cc2ccc(F)cc2[nH]1)N1C[C@]2(CCN(C3CCNC3)C2)c2ccccc21 (stereo partly drawn)
843	COc1ccc2cc(C(=O)N3C[C@]4(CCN(C5CCNC5)C4)c4ccccc43)[nH]c2c1 (stereo partly drawn)
37800	Cc1ccc(N2CC[C@@]3(C2)CN(C(=O)c2cc4cc(F)ccc4[nH]2)c2ccccc23)cn1
2880	CN1CCC(N2CC[C@]3(CN(C(=O)c4cc5cc(F)ccc5[nH]4)c4ccccc43)C2)CC1
8660	O=C(c1cc2cc(Cl)ccc2[nH]1)N1C[C@]2(CCN(C3CCNCC3)C2)c2ccccc21
2200	NC(=O)c1ccc2cc(C(=O)N3C[C@]4(CCN(C5CCNC5)C4)c4ccccc43)[nH]c2c1 (stereo partly drawn)
811	Cc1ccc2[nH]c(C(=O)N3C[C@]4(CCN(C5CCNC5)C4)c4ccccc43)cc2c1 (stereo partly drawn)
560	O=C(c1cc2c(Cl)cccc2[nH]1)N1C[C@]2(CCN(C3CCNC3)C2)c2ccccc21 (stereo partly drawn)
495	O=C(c1cc2cc(Cl)ccc2[nH]1)N1C[C@]2(CCN(C3CCNC3)C2)c2ccccc21 (stereo partly drawn)
1040	O=C(c1cc2cc(Cl)ccc2[nH]1)N1C[C@]2(CCN(C3CCCNC3)C2)c2ccccc21 (stereo partly drawn)
4930	CCN1CCCC(N2CC[C@]3(CN(C(=O)c4cc5cc(F)ccc5[nH]4)c4ccccc43)C2)C1 (stereo partly drawn)
27900	O=C(c1cc2cc(F)ccc2[nH]1)N1C[C@]2(CCN(C3CCCCC3)C2)c2ccccc21
4410	O=C(c1cc2cc(F)ccc2[nH]1)N1C[C@]2(CCN(CC3CCCNC3)C2)c2ccccc21 (stereo partly drawn)
501	COc1ccc2[nH]c(C(=O)N3C[C@]4(CCN(C5CCNC5)C4)c4ccccc43)cc2c1 (stereo partly drawn)
1810	O=C(c1cc2cc(F)ccc2[nH]1)N1C[C@]2(CCN(C3CNC3)C2)c2ccccc21
